Data taken from patent US9586936B2, “Heteroarylamine derivatives as protein kinase inhibitors” (KOREA INSTITUTE OF SCIENCE AND TECHNOLOGY, priority 2014, dated 2017).

Key:
microsomal stability [1] = format: in vitro ADME, Dog; details: for microsomal stability (% at time): Dog
Description: (§1) The microsomal stability of N-(2,6-dichloro-3,5-dimethoxyphenyl)-1-(6-((4-(4-ethylpiperazin-1-yl)phenyl)amino)pyrimidin-4-yl)-1H-benz[d]imidazol-2-amine synthesized in Example 1, as a representative compound of the present invention, was evaluated.

microsomal stability [2] = format: in vitro ADME, Human; details: for microsomal stability (% at time): Human
Description: as §1

[3] = test system: bladder cancer cell line RT112; experiment: inhibition of proliferation of cancer cells; format: cell-based; details: Homo sapiens, RT-112, read-out: Ability of inhibiting proliferation of RT112 (GI50)
Description: The ability of the compound of the present invention of inhibiting the proliferation of the bladder cancer cell line RT112 was determined as the GI50 value.

LYN B = LYN B (Homo sapiens, UniProt P07948); experiment: kinase inhibition activity, full kinase panel; format: biochemical; details: 1 μM of the compound; read-out: kinase activity inhibited (% inhibition)
Chain of LYN B (P07948 1-491 isoform P07948-2): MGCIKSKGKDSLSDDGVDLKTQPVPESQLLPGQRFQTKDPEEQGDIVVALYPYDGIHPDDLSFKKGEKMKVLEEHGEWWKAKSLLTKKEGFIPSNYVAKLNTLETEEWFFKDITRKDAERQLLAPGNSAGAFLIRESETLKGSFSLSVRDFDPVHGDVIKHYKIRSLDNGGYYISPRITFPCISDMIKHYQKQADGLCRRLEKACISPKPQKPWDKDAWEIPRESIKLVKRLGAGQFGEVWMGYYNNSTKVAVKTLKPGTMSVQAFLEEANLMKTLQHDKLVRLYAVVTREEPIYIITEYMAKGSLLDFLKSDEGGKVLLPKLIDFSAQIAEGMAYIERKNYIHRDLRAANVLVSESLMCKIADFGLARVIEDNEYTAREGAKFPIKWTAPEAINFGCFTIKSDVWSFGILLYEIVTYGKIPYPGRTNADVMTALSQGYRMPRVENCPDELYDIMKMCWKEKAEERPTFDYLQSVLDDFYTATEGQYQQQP
Description: (§2) In order to measure the inhibition activity (% inhibition) of the compound of the present invention against protein kinases, a biochemical assay was conducted using a full kinase panel consisting of 340 kinases. As a representative compound of the present invention, N-(2,6-dichloro-3,5-dimethoxyphenyl)-1-(6-((4-(4-ethylpiperazin-1-yl)phenyl)amino)pyrimidin-4-yl)-1H-benz[d]imidazol-2-amine synthesized in Example 1 was used.
(§3) The kinases whose activity is inhibited by 50% or more when treated with 1 μM of the compound of Example 1 are listed in Table 1.

MEKK2 = MEKK2 (Homo sapiens, UniProt Q9Y2U5); experiment: kinase inhibition activity, full kinase panel; format: biochemical; details: 1 μM of the compound; read-out: kinase activity inhibited (% inhibition)
Chain of MEKK2 (Q9Y2U5 whole entry): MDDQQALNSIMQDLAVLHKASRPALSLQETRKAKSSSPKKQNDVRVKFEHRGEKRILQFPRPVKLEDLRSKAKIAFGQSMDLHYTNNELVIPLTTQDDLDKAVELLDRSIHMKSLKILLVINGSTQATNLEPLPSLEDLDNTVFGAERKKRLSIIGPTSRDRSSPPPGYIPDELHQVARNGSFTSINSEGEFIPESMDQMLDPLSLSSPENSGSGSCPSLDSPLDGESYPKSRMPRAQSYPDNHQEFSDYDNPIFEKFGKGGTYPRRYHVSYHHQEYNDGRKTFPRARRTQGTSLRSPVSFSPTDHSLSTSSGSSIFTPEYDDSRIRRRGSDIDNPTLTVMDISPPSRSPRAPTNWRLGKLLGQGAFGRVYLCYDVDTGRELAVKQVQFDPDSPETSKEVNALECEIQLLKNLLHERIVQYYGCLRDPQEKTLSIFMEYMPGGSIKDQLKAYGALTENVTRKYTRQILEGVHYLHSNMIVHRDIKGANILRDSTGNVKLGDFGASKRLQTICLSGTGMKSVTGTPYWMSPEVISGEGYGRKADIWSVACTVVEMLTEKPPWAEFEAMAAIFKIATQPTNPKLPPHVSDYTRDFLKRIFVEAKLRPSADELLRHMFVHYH
Description: as §2, §3

Hck = Hck (Homo sapiens, UniProt P08631); experiment: kinase inhibition activity, full kinase panel; format: biochemical; details: 1 μM of the compound; read-out: kinase activity inhibited (% inhibition)
Chain of Hck (P08631 whole entry): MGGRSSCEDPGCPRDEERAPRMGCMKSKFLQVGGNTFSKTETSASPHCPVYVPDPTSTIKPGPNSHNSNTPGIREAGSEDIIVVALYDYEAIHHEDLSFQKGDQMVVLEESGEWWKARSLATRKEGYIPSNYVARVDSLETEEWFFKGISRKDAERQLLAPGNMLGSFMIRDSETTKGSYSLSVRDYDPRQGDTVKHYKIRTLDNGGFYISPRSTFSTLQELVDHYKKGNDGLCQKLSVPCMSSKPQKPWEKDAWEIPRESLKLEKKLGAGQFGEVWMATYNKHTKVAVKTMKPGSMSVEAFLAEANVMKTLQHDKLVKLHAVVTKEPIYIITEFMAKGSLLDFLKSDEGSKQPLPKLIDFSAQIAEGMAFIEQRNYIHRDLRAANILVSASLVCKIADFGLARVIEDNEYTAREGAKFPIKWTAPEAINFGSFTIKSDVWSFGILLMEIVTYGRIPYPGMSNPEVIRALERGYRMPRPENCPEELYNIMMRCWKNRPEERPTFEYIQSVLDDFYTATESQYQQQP
Description: as §2, §3

FGFR4 = FGFR4 (Homo sapiens, UniProt P22455); experiment: kinase inhibition activity, full kinase panel; format: biochemical; details: 1 μM of the compound; read-out: kinase activity inhibited (% inhibition)
Description: as §2, §3

FMS = FMS (Homo sapiens, UniProt P07333); experiment: kinase inhibition activity, full kinase panel; format: biochemical; details: 1 μM of the compound; read-out: kinase activity inhibited (% inhibition)
Chain of FMS (P07333 20-972): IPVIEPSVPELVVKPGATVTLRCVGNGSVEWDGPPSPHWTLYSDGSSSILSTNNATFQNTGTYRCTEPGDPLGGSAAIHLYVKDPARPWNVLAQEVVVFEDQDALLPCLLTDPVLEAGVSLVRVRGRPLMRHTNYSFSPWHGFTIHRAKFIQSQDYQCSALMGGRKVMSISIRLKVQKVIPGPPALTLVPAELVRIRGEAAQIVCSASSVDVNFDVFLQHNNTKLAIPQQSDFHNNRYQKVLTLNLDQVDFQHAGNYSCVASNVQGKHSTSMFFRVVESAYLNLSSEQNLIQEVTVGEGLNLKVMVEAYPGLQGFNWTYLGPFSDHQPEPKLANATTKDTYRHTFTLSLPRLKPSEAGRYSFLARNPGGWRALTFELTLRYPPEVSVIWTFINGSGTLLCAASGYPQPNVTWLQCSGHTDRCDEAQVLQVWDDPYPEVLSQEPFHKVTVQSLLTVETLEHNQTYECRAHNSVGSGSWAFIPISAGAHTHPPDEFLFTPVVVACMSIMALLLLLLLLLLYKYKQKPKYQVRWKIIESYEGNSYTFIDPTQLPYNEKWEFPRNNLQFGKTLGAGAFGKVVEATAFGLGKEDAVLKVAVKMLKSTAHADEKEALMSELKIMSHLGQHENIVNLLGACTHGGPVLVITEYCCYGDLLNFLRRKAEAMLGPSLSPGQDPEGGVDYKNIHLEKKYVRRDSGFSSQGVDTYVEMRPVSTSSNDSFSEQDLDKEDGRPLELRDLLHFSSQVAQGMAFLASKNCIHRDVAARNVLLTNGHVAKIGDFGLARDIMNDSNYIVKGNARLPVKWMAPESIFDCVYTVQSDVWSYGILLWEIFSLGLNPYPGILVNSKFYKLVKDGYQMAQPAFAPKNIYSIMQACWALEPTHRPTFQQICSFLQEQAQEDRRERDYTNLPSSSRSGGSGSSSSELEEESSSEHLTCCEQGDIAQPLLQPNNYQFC
Description: as §2, §3

CYP1A2 = target: T1, CYP1A2 (Homo sapiens, UniProt P05177); experiment: inhibition activity against CYPs (cytochromes P450); format: in vitro ADME
T1 sequence (P05177 1-516): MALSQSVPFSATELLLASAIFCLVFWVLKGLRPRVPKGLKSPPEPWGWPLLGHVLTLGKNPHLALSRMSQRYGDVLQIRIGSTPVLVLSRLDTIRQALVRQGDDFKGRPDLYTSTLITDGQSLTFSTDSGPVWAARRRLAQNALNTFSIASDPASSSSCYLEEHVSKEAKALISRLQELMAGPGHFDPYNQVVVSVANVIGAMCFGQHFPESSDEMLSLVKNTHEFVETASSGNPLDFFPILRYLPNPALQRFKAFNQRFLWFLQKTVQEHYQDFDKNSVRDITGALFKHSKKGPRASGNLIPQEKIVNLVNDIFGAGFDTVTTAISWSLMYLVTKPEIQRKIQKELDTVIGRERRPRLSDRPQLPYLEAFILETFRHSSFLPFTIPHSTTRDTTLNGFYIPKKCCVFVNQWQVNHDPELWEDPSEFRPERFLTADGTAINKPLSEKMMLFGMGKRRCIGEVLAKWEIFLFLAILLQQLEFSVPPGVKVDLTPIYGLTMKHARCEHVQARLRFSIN
Description: (§4) The inhibition activity (inhibition rate, %) of N-(2,6-dichloro-3,5-dimethoxyphenyl)-1-(6-((4-(4-ethylpiperazin-1-yl)phenyl)amino)pyrimidin-4-yl)-1H-benz[d]imidazol-2-amine synthesized in Example 1, as a representative compound of the present invention, against CYPs (cytochromes P450) was measured in order to investigate the risk of drug side effects.

CYP2D6 = CYP2D6 (Homo sapiens, UniProt P10635); experiment: as above; format: in vitro ADME
Chain of CYP2D6 (P10635 whole entry): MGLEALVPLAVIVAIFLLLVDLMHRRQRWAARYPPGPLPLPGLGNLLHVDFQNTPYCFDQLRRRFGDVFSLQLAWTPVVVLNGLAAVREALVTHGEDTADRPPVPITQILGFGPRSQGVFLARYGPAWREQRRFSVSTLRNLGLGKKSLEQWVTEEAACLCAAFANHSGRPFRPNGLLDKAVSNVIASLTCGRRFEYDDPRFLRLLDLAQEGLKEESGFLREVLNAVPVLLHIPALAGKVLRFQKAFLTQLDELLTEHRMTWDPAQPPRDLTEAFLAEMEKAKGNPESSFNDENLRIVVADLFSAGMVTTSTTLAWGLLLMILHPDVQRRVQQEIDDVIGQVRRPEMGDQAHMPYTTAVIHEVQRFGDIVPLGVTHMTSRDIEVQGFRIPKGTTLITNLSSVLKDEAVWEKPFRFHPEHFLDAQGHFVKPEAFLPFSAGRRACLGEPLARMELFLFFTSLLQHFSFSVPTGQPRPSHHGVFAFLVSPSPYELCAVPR
Description: as §4

CYP2C9 = CYP2C9 (Homo sapiens, UniProt P11712); experiment: as above; format: in vitro ADME
Chain of CYP2C9 (P11712 whole entry): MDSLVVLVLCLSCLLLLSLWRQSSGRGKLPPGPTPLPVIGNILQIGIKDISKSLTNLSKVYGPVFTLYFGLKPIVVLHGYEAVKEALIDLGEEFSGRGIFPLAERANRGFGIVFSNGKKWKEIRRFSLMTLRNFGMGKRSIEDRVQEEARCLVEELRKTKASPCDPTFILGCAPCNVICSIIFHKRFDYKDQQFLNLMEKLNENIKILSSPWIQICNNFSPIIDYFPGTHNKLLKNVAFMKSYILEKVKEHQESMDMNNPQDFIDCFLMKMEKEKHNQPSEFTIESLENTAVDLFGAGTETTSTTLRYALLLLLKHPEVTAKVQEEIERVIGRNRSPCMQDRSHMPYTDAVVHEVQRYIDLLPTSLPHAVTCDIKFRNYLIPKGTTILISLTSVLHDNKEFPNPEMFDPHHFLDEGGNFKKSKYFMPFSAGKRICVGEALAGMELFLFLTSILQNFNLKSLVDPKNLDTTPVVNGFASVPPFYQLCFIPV
Description: as §4

CYP3A4 = CYP3A4 (Homo sapiens, UniProt P08684); experiment: as above; format: in vitro ADME
Chain of CYP3A4 (P08684 whole entry): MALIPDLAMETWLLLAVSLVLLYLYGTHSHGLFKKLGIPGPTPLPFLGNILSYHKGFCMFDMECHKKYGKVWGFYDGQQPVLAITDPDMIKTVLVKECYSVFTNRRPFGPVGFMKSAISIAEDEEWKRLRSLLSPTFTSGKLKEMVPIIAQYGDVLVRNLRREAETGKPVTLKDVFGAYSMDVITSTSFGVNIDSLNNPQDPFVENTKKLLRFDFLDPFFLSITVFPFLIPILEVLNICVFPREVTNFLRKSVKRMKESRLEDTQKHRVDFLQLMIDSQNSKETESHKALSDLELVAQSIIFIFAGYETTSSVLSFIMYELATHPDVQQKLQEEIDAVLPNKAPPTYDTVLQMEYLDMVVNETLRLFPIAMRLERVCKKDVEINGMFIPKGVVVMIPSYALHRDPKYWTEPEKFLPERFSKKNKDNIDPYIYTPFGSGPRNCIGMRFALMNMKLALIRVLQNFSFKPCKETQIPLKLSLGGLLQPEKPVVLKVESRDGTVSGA
Description: as §4

CYP2C19 = CYP2C19 (Homo sapiens, UniProt P33261); experiment: as above; format: in vitro ADME
Chain of CYP2C19 (P33261 whole entry): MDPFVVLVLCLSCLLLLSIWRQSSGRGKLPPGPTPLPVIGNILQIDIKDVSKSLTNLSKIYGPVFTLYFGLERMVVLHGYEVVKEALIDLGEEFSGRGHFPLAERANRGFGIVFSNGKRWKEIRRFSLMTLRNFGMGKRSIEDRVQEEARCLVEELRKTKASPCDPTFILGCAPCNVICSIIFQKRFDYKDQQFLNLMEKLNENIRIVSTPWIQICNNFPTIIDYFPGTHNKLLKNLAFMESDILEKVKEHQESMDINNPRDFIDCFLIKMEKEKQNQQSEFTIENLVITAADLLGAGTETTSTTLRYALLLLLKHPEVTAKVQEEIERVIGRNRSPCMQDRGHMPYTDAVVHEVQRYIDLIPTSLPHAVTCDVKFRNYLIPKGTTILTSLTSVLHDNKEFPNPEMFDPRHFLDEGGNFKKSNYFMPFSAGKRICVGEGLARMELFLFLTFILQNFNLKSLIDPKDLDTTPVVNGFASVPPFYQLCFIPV
Description: as §4

[4] = from 0.1-50 μM, unit from the table's concentration head, read-out: Expected IC50

For `CCN1CCN(c2ccc(Nc3cc(-n4c(Nc5c(Cl)c(OC)cc(OC)c5Cl)nc5ccccc54)ncn3)cc2)CC1` [Example 1, N-(2,6-dichloro-3,5-dimethoxyphenyl)-1-(6-((4-(4-ethylpiperazin-1-yl)phenyl)amino)pyrimidin-4-yl)-1H-benz[d]imidazol-2-amine], the “microsomal stability (% at time)” value (microsomal stability [1]; 0 min) was 100.00%, the “microsomal stability (% at time)” value (microsomal stability [1]; 5 min) was 77.02% and the “microsomal stability (% at time)” value (microsomal stability [1]; 10 min) was 57.41%. The “microsomal stability (% at time)” value (microsomal stability [1]; 15 min) was 44.70%, the “microsomal stability (% at time)” value (microsomal stability [1]; 30 min) was 21.03% and the “microsomal stability (% at time)” value (microsomal stability [1]; 45 min) was 8.23%. The “microsomal stability (% at time)” value (microsomal stability [1]; 60 min) was 5.02%, the half-life (microsomal stability [1]; microsomes, Dog microsomal stability) was 13.5 min and the “microsomal stability (% at time)” value (microsomal stability [2]; 0 min) was 100.00%. For the same compound, the “microsomal stability (% at time)” value (microsomal stability [2]; 5 min) was 80.36%, the “microsomal stability (% at time)” value (microsomal stability [2]; 10 min) was 76.63% and the “microsomal stability (% at time)” value (microsomal stability [2]; 15 min) was 64.04%. For the same compound, the “microsomal stability (% at time)” value (microsomal stability [2]; 30 min) was 51.45%, the “microsomal stability (% at time)” value (microsomal stability [2]; 45 min) was 37.62% and the “microsomal stability (% at time)” value (microsomal stability [2]; 60 min) was 36.17%. It also gave a half-life (microsomal stability [2]; microsomes, Human microsomal stability) of 33.9 min, a GI50 [3] of less than 1 µM and an inhibition at 1 µM (LYN B) of no less than 50%. The inhibition at 1 µM (MEKK2) was no less than 50%, the inhibition at 1 µM (Hck) was no less than 50% and the inhibition at 1 µM (FGFR4) was no less than 50%. It also gave an inhibition at 1 µM (FMS) of no less than 50%, an IC50 (CYP1A2; [4]) greater than 50 µM and an inhibition at 0.1 µM (CYP1A2; human, concentration 0.1 μM) of 5.36%. For the same compound, the inhibition at 0.5 µM (CYP1A2; human, concentration 0.5 μM) was 4.67%, the inhibition at 5 µM (CYP1A2; human, concentration 5 μM) was -1.9% and the inhibition at 10 µM (CYP1A2; human, concentration 10 μM) was -3.46%. For the same compound, the inhibition at 25 µM (CYP1A2; human, concentration 25 μM) was -3.11%, the inhibition at 50 µM (CYP1A2; human, concentration 50 μM) was 2.08% and the “inhibition activity against CYP, statement in words” value (shortened to “inhibition activity against CYP”) (CYP1A2; summary of Table 5) was “no inhibition activity”. It also gave an inhibition at 10 µM (CYP2D6; concentration 10 μM) of 6.12%, an IC50 (CYP2D6; [4]) greater than 50 µM and an inhibition at 0.1 µM (CYP2D6; human, concentration 0.1 μM) of -3.15%. The inhibition at 0.5 µM (CYP2D6; human, concentration 0.5 μM) was -4.76%, the inhibition at 5 µM (CYP2D6; human, concentration 5 μM) was -2.56% and the inhibition at 25 µM (CYP2D6; human, concentration 25 μM) was 13.6%. The inhibition at 50 µM (CYP2D6; human, concentration 50 μM) was 13.4%, the “inhibition activity against CYP” value (CYP2D6; summary of Table 5) was “no inhibition activity” and the IC50 (CYP2C9; [4]) was 44.8 µM. It also gave an inhibition at 0.1 µM (CYP2C9; human, concentration 0.1 μM) of 10.3%, an inhibition at 0.5 µM (CYP2C9; human, concentration 0.5 μM) of 8.79% and an inhibition at 5 µM (CYP2C9; human, concentration 5 μM) of 24.6%. The inhibition at 10 µM (CYP2C9; human, concentration 10 μM) was 30%, the inhibition at 25 µM (CYP2C9; human, concentration 25 μM) was 52.4% and the inhibition at 50 µM (CYP2C9; human, concentration 50 μM) was 53.4%. The “inhibition activity against CYP” value (CYP2C9; summary of Table 5) was “no inhibition activity”, the inhibition at 10 µM (CYP3A4; concentration 10 μM) was 31.8% and the IC50 (CYP3A4; [4]) was 32.4 µM. The inhibition at 0.1 µM (CYP3A4; human, concentration 0.1 μM) was 3.09%, the inhibition at 0.5 µM (CYP3A4; human, concentration 0.5 μM) was 3.7% and the inhibition at 5 µM (CYP3A4; human, concentration 5 μM) was 24.4%. For the same compound, the inhibition at 25 µM (CYP3A4; human, concentration 25 μM) was 49.7%, the inhibition at 50 µM (CYP3A4; human, concentration 50 μM) was 55.5% and the “inhibition activity against CYP” value (CYP3A4; summary of Table 5) was “no inhibition activity”. The inhibition at 10 µM (CYP2C19; concentration 10 μM) was 37.3%, the IC50 (CYP2C19; [4]) was 16.6 µM and the inhibition at 0.1 µM (CYP2C19; human, concentration 0.1 μM) was 2.72%. For the same compound, the inhibition at 0.5 µM (CYP2C19; human, concentration 0.5 μM) was 3.23%, the inhibition at 5 µM (CYP2C19; human, concentration 5 μM) was 30% and the inhibition at 25 µM (CYP2C19; human, concentration 25 μM) was 66.1%. For the same compound, the inhibition at 50 µM (CYP2C19; human, concentration 50 μM) was 68% and the “inhibition activity against CYP” value (CYP2C19; summary of Table 5) was “no inhibition activity”.
